Assay results reported in publication PMC11124822, “Discovery and Anticancer Screening of Novel Oxindole-Based Derivative Bearing Pyridyl Group as Potent and Selective Dual FLT3/CDK2 Kinase Inhibitor” (Pharmaceuticals, 2024).

Tested on: MOLT-4
Experiment: NCI-60 antiproliferative screen (SRB)
Format: cell-based
Conditions: Homo sapiens; 10 µM single dose, 48 h; MOLT-4 (Leukemia); read-out: Growth inhibition (%)

Question: How did the inhibition at 10 µM turn out when `O=C1Nc2ccc(F)cc2C1=Cc1ccc(OCc2ccccn2)cc1` (mixture of isomers) [Compound 5f, (E/Z)-5-fluoro-3-[4-(pyridin-2-ylmethoxy)benzylidene]indolin-2-one] was run?
Answer: 3.55%

Tested on: RPMI-8226
Experiment: NCI-60 antiproliferative screen (SRB)
Format: cell-based, human
Conditions: Homo sapiens; 10 µM single dose, 48 h; RPMI-8226 (Leukemia); read-out: Growth inhibition (%)

Question: How did the inhibition at 10 µM turn out when `O=C1Nc2ccc(F)cc2C1=Cc1ccc(OCc2ccccn2)cc1` (mixture of isomers) [Compound 5f, (E/Z)-5-fluoro-3-[4-(pyridin-2-ylmethoxy)benzylidene]indolin-2-one] was run?
Answer: 19.4%

Tested on: HOP-62
Experiment: NCI-60 antiproliferative screen (SRB)
Format: cell-based, human
Conditions: Homo sapiens; 10 µM single dose, 48 h; HOP-62 (NSCLC); read-out: Growth inhibition (%)

Question: How did the inhibition at 10 µM turn out when `O=C1Nc2ccc(F)cc2C1=Cc1ccc(OCc2ccccn2)cc1` (mixture of isomers) [Compound 5f, (E/Z)-5-fluoro-3-[4-(pyridin-2-ylmethoxy)benzylidene]indolin-2-one] was run?
Answer: -7.71%

Tested on: HCC-2998
Experiment: NCI-60 antiproliferative screen (SRB)
Format: cell-based, human
Conditions: Homo sapiens; 10 µM single dose, 48 h; HCC-2998 (Colon); read-out: Growth inhibition (%)

Question: How did the inhibition at 10 µM turn out when `O=C1Nc2ccc(F)cc2C1=Cc1ccc(OCc2ccccn2)cc1` (mixture of isomers) [Compound 5f, (E/Z)-5-fluoro-3-[4-(pyridin-2-ylmethoxy)benzylidene]indolin-2-one] was run?
Answer: -20.2%

Tested on: HCT-116
Experiment: NCI-60 antiproliferative screen (SRB)
Format: cell-based, human
Conditions: Homo sapiens; 10 µM single dose, 48 h; HCT-116 (Colon); read-out: Growth inhibition (%)

Question: How did the inhibition at 10 µM turn out when `O=C1Nc2ccc(F)cc2C1=Cc1ccc(OCc2ccccn2)cc1` (mixture of isomers) [Compound 5f, (E/Z)-5-fluoro-3-[4-(pyridin-2-ylmethoxy)benzylidene]indolin-2-one] was run?
Answer: 57.8%

Tested on: KM12
Experiment: NCI-60 antiproliferative screen (SRB)
Format: cell-based, human
Conditions: Homo sapiens; 10 µM single dose, 48 h; KM12 (Colon); read-out: Growth inhibition (%)

Question: Which inhibition at 10 µM does the source give for `O=C1Nc2ccc(F)cc2C1=Cc1ccc(OCc2ccccn2)cc1` (mixture of isomers) [Compound 5f, (E/Z)-5-fluoro-3-[4-(pyridin-2-ylmethoxy)benzylidene]indolin-2-one] here?
Answer: 18.8%

Tested on: SW-620
Experiment: NCI-60 antiproliferative screen (SRB)
Format: cell-based, human
Conditions: Homo sapiens; 10 µM single dose, 48 h; SW-620 (Colon); read-out: Growth inhibition (%)

Question: `O=C1Nc2ccc(F)cc2C1=Cc1ccc(OCc2ccccn2)cc1` (mixture of isomers) [Compound 5f, (E/Z)-5-fluoro-3-[4-(pyridin-2-ylmethoxy)benzylidene]indolin-2-one] was tested. Which inhibition at 10 µM did it give?
Answer: -2.79%

Tested on: SF-295
Experiment: NCI-60 antiproliferative screen (SRB)
Format: cell-based, human
Conditions: Homo sapiens; 10 µM single dose, 48 h; SF-295 (CNS); read-out: Growth inhibition (%)

Question: With `O=C1Nc2ccc(F)cc2C1=Cc1ccc(OCc2ccccn2)cc1` (mixture of isomers) [Compound 5f, (E/Z)-5-fluoro-3-[4-(pyridin-2-ylmethoxy)benzylidene]indolin-2-one] as the compound, how does the inhibition at 10 µM read?
Answer: 1.98%

Tested on: SF-539
Experiment: NCI-60 antiproliferative screen (SRB)
Format: cell-based, human
Conditions: Homo sapiens; 10 µM single dose, 48 h; SF-539 (CNS); read-out: Growth inhibition (%)

Question: How did the inhibition at 10 µM turn out when `O=C1Nc2ccc(F)cc2C1=Cc1ccc(OCc2ccccn2)cc1` (mixture of isomers) [Compound 5f, (E/Z)-5-fluoro-3-[4-(pyridin-2-ylmethoxy)benzylidene]indolin-2-one] was run?
Answer: 47.7%

Tested on: U251
Experiment: NCI-60 antiproliferative screen (SRB)
Format: cell-based, human
Conditions: Homo sapiens, U-251; 10 µM single dose, 48 h; U251 (CNS); read-out: Growth inhibition (%)

Question: With `O=C1Nc2ccc(F)cc2C1=Cc1ccc(OCc2ccccn2)cc1` (mixture of isomers) [Compound 5f, (E/Z)-5-fluoro-3-[4-(pyridin-2-ylmethoxy)benzylidene]indolin-2-one] as the compound, how does the inhibition at 10 µM read?
Answer: 41.8%

Tested on: MALME-3M
Experiment: NCI-60 antiproliferative screen (SRB)
Format: cell-based, human
Conditions: Homo sapiens; 10 µM single dose, 48 h; MALME-3M (Melanoma); read-out: Growth inhibition (%)

Question: Which inhibition at 10 µM does the source give for `O=C1Nc2ccc(F)cc2C1=Cc1ccc(OCc2ccccn2)cc1` (mixture of isomers) [Compound 5f, (E/Z)-5-fluoro-3-[4-(pyridin-2-ylmethoxy)benzylidene]indolin-2-one] here?
Answer: 7.24%

Tested on: M14
Experiment: NCI-60 antiproliferative screen (SRB)
Format: cell-based, human
Conditions: Homo sapiens; 10 µM single dose, 48 h; M14 (Melanoma); read-out: Growth inhibition (%)

Question: For `O=C1Nc2ccc(F)cc2C1=Cc1ccc(OCc2ccccn2)cc1` (mixture of isomers) [Compound 5f, (E/Z)-5-fluoro-3-[4-(pyridin-2-ylmethoxy)benzylidene]indolin-2-one], which inhibition at 10 µM is on record?
Answer: -5.09%

Tested on: SK-MEL-2
Experiment: NCI-60 antiproliferative screen (SRB)
Format: cell-based, human
Conditions: Homo sapiens; 10 µM single dose, 48 h; SK-MEL-2 (Melanoma); read-out: Growth inhibition (%)

Question: Which inhibition at 10 µM does the source give for `O=C1Nc2ccc(F)cc2C1=Cc1ccc(OCc2ccccn2)cc1` (mixture of isomers) [Compound 5f, (E/Z)-5-fluoro-3-[4-(pyridin-2-ylmethoxy)benzylidene]indolin-2-one] here?
Answer: -3.45%

Tested on: SK-MEL-28
Experiment: NCI-60 antiproliferative screen (SRB)
Format: cell-based, human
Conditions: Homo sapiens; 10 µM single dose, 48 h; SK-MEL-28 (Melanoma); read-out: Growth inhibition (%)

Question: How did the inhibition at 10 µM turn out when `O=C1Nc2ccc(F)cc2C1=Cc1ccc(OCc2ccccn2)cc1` (mixture of isomers) [Compound 5f, (E/Z)-5-fluoro-3-[4-(pyridin-2-ylmethoxy)benzylidene]indolin-2-one] was run?
Answer: -8.53%

Tested on: UACC-257
Experiment: NCI-60 antiproliferative screen (SRB)
Format: cell-based, human
Conditions: Homo sapiens; 10 µM single dose, 48 h; UACC-257 (Melanoma); read-out: Growth inhibition (%)

Question: With `O=C1Nc2ccc(F)cc2C1=Cc1ccc(OCc2ccccn2)cc1` (mixture of isomers) [Compound 5f, (E/Z)-5-fluoro-3-[4-(pyridin-2-ylmethoxy)benzylidene]indolin-2-one] as the compound, how does the inhibition at 10 µM read?
Answer: -4.06%

Tested on: OVCAR-3
Experiment: NCI-60 antiproliferative screen (SRB)
Format: cell-based, human
Conditions: Homo sapiens; 10 µM single dose, 48 h; OVCAR-3 (Ovarian); read-out: Growth inhibition (%)

Question: How did the inhibition at 10 µM turn out when `O=C1Nc2ccc(F)cc2C1=Cc1ccc(OCc2ccccn2)cc1` (mixture of isomers) [Compound 5f, (E/Z)-5-fluoro-3-[4-(pyridin-2-ylmethoxy)benzylidene]indolin-2-one] was run?
Answer: 8.17%

Tested on: OVCAR-5
Experiment: NCI-60 antiproliferative screen (SRB)
Format: cell-based, human
Conditions: Homo sapiens; 10 µM single dose, 48 h; OVCAR-5 (Ovarian); read-out: Growth inhibition (%)

Question: For `O=C1Nc2ccc(F)cc2C1=Cc1ccc(OCc2ccccn2)cc1` (mixture of isomers) [Compound 5f, (E/Z)-5-fluoro-3-[4-(pyridin-2-ylmethoxy)benzylidene]indolin-2-one], which inhibition at 10 µM is on record?
Answer: -9.45%

Tested on: OVCAR-8
Experiment: NCI-60 antiproliferative screen (SRB)
Format: cell-based, human
Conditions: Homo sapiens; 10 µM single dose, 48 h; OVCAR-8 (Ovarian); read-out: Growth inhibition (%)

Question: With `O=C1Nc2ccc(F)cc2C1=Cc1ccc(OCc2ccccn2)cc1` (mixture of isomers) [Compound 5f, (E/Z)-5-fluoro-3-[4-(pyridin-2-ylmethoxy)benzylidene]indolin-2-one] as the compound, how does the inhibition at 10 µM read?
Answer: 3.52%

Tested on: NCI/ADR-RES
Experiment: NCI-60 antiproliferative screen (SRB)
Format: cell-based, human
Conditions: Homo sapiens; 10 µM single dose, 48 h; NCI/ADR-RES (Ovarian); read-out: Growth inhibition (%)

Question: `O=C1Nc2ccc(F)cc2C1=Cc1ccc(OCc2ccccn2)cc1` (mixture of isomers) [Compound 5f, (E/Z)-5-fluoro-3-[4-(pyridin-2-ylmethoxy)benzylidene]indolin-2-one] was tested. Which inhibition at 10 µM did it give?
Answer: 21.7%

Tested on: A498
Experiment: NCI-60 antiproliferative screen (SRB)
Format: cell-based, human
Conditions: Homo sapiens; 10 µM single dose, 48 h; A498 (Renal); read-out: Growth inhibition (%)

Question: How did the inhibition at 10 µM turn out when `O=C1Nc2ccc(F)cc2C1=Cc1ccc(OCc2ccccn2)cc1` (mixture of isomers) [Compound 5f, (E/Z)-5-fluoro-3-[4-(pyridin-2-ylmethoxy)benzylidene]indolin-2-one] was run?
Answer: 32.5%

Tested on: CAKI-1
Experiment: NCI-60 antiproliferative screen (SRB)
Format: cell-based, human
Conditions: Homo sapiens; 10 µM single dose, 48 h; CAKI-1 (Renal); read-out: Growth inhibition (%)

Question: For `O=C1Nc2ccc(F)cc2C1=Cc1ccc(OCc2ccccn2)cc1` (mixture of isomers) [Compound 5f, (E/Z)-5-fluoro-3-[4-(pyridin-2-ylmethoxy)benzylidene]indolin-2-one], which inhibition at 10 µM is on record?
Answer: 33.5%

Tested on: RXF 393
Experiment: NCI-60 antiproliferative screen (SRB)
Format: cell-based, human
Conditions: Homo sapiens; 10 µM single dose, 48 h; RXF 393 (Renal); read-out: Growth inhibition (%)

Question: How did the inhibition at 10 µM turn out when `O=C1Nc2ccc(F)cc2C1=Cc1ccc(OCc2ccccn2)cc1` (mixture of isomers) [Compound 5f, (E/Z)-5-fluoro-3-[4-(pyridin-2-ylmethoxy)benzylidene]indolin-2-one] was run?
Answer: 24.2%

Tested on: UO-31
Experiment: NCI-60 antiproliferative screen (SRB)
Format: cell-based, human
Conditions: Homo sapiens; 10 µM single dose, 48 h; UO-31 (Renal); read-out: Growth inhibition (%)

Question: With `O=C1Nc2ccc(F)cc2C1=Cc1ccc(OCc2ccccn2)cc1` (mixture of isomers) [Compound 5f, (E/Z)-5-fluoro-3-[4-(pyridin-2-ylmethoxy)benzylidene]indolin-2-one] as the compound, how does the inhibition at 10 µM read?
Answer: 26.5%

Tested on: PC-3
Experiment: NCI-60 antiproliferative screen (SRB)
Format: cell-based, human
Conditions: Homo sapiens; 10 µM single dose, 48 h; PC-3 (Prostate); read-out: Growth inhibition (%)

Question: How did the inhibition at 10 µM turn out when `O=C1Nc2ccc(F)cc2C1=Cc1ccc(OCc2ccccn2)cc1` (mixture of isomers) [Compound 5f, (E/Z)-5-fluoro-3-[4-(pyridin-2-ylmethoxy)benzylidene]indolin-2-one] was run?
Answer: 8.7%

Tested on: DU-145
Experiment: NCI-60 antiproliferative screen (SRB)
Format: cell-based, human
Conditions: Homo sapiens; 10 µM single dose, 48 h; DU-145 (Prostate); read-out: Growth inhibition (%)

Question: With `O=C1Nc2ccc(F)cc2C1=Cc1ccc(OCc2ccccn2)cc1` (mixture of isomers) [Compound 5f, (E/Z)-5-fluoro-3-[4-(pyridin-2-ylmethoxy)benzylidene]indolin-2-one] as the compound, how does the inhibition at 10 µM read?
Answer: 7.73%

Tested on: MCF7
Experiment: NCI-60 antiproliferative screen (SRB)
Format: cell-based, human
Conditions: Homo sapiens; 10 µM single dose, 48 h; MCF7 (Breast); read-out: Growth inhibition (%)

Question: `O=C1Nc2ccc(F)cc2C1=Cc1ccc(OCc2ccccn2)cc1` (mixture of isomers) [Compound 5f, (E/Z)-5-fluoro-3-[4-(pyridin-2-ylmethoxy)benzylidene]indolin-2-one] was tested. Which inhibition at 10 µM did it give?
Answer: 37.8%

Tested on: MDA-MB-231
Experiment: NCI-60 antiproliferative screen (SRB)
Format: cell-based, human
Conditions: Homo sapiens; 10 µM single dose, 48 h; MDA-MB-231 (Breast); read-out: Growth inhibition (%)

Question: With `O=C1Nc2ccc(F)cc2C1=Cc1ccc(OCc2ccccn2)cc1` (mixture of isomers) [Compound 5f, (E/Z)-5-fluoro-3-[4-(pyridin-2-ylmethoxy)benzylidene]indolin-2-one] as the compound, how does the inhibition at 10 µM read?
Answer: 14.9%

Tested on: MDA-MB-468
Experiment: NCI-60 antiproliferative screen (SRB)
Format: cell-based, human
Conditions: Homo sapiens; 10 µM single dose, 48 h; MDA-MB-468 (Breast); read-out: Growth inhibition (%)

Question: How did the inhibition at 10 µM turn out when `O=C1Nc2ccc(F)cc2C1=Cc1ccc(OCc2ccccn2)cc1` (mixture of isomers) [Compound 5f, (E/Z)-5-fluoro-3-[4-(pyridin-2-ylmethoxy)benzylidene]indolin-2-one] was run?
Answer: 28.2%

Tested on: OVCAR-4
Experiment: NCI-60 antiproliferative screen (SRB)
Conditions: Homo sapiens, OVCAR-4, 48 h, read-out: Growth inhibition (%)

Question: With `O=C1Nc2ccc(F)cc2C1=Cc1ccc(OCc2ccccn2)cc1` (mixture of isomers) [Compound 5f, (E/Z)-5-fluoro-3-[4-(pyridin-2-ylmethoxy)benzylidene]indolin-2-one] as the compound, how does the inhibition at 10 µM read?
Answer: 5.38%
